Source: the supplement of paper PMC8882468
± gives the standard deviation of the averaged measurements.

System: HCI-003.E2 (organoid from an ER-positive breast cancer xenograft)
Test: CTG-3D luminescence at 96 h relative to day-0 seeding control (ratio to day 0); higher = more growth / less cytotoxicity; PDxO 3D drug screen, 96 h, CTG-3D normalised to day-0 seeding control.
Settings: 12.5 pM

| SMILES | CTG-3D luminescence at 96 h |
| --- | --- |
| COc1cc2c(Oc3ccc4[nH]c(C)cc4c3F)ncnc2cc1OCCCN1CCCC1 [cediranib] | 2.13 ± 0.86 |
| CC(C)n1nc(-c2ccc3oc(N)nc3c2)c2c(N)ncnc21 [sapanisertib] | 2.24 ± 0.71 |
| Cc1cc(Nc2ncnc3ccc(NC4=NC(C)(C)CO4)cc23)ccc1Oc1ccn2ncnc2c1 [tucatinib] | 2.15 ± 0.73 |
| C[C@H](NC(=O)CCC(F)(F)F)C(=O)N[C@@H]1C(=O)N(CCO)c2ncccc2-c2ccccc21 [crenigacestat] | 2.2 ± 0.74 |
| C[C@]12CC[C@@H]3c4ccc(O)cc4C[C@@H](CCCCCCCCC[S+]([O-])CCCC(F)(F)C(F)(F)F)[C@H]3[C@@H]1CC[C@@H]2O (some centres not stated) [fulvestrant] | 2.4 ± 0.89 |
| O=C(c1ccc(F)c(F)c1Nc1ccc(I)cc1F)N1CC(O)([C@@H]2CCCCN2)C1 [cobimetinib] | 2.11 ± 0.75 |
| O=C(/C=C/c1cccnc1)NCCCCC1CCN(C(=O)c2ccccc2)CC1 [FK866] | 2.05 ± 0.6 |
| CS(=O)(=O)c1ccc(C(=O)Nc2ccc(Cl)c(-c3ccccn3)c2)c(Cl)c1 [vismodegib] | 1.92 ± 0.81 |
| C=CCn1c(=O)c2cnc(Nc3ccc(N4CCN(C)CC4)cc3)nc2n1-c1cccc(C(C)(C)O)n1 [adavosertib] | 2.18 ± 0.8 |

Same assay, conditions: 0.00025 µM

| SMILES | CTG-3D luminescence at 96 h |
| --- | --- |
| COc1cc2c(Oc3ccc4[nH]c(C)cc4c3F)ncnc2cc1OCCCN1CCCC1 [cediranib] | 2.53 ± 0.78 |
| CC(C)n1nc(-c2ccc3oc(N)nc3c2)c2c(N)ncnc21 [sapanisertib] | 2.55 ± 0.68 |
| Cc1cc(Nc2ncnc3ccc(NC4=NC(C)(C)CO4)cc23)ccc1Oc1ccn2ncnc2c1 [tucatinib] | 2.41 ± 0.78 |
| C[C@H](NC(=O)CCC(F)(F)F)C(=O)N[C@@H]1C(=O)N(CCO)c2ncccc2-c2ccccc21 [crenigacestat] | 2.4 ± 0.87 |
| C[C@]12CC[C@@H]3c4ccc(O)cc4C[C@@H](CCCCCCCCC[S+]([O-])CCCC(F)(F)C(F)(F)F)[C@H]3[C@@H]1CC[C@@H]2O (some centres not stated) [fulvestrant] | 2.42 ± 0.69 |
| O=C(c1ccc(F)c(F)c1Nc1ccc(I)cc1F)N1CC(O)([C@@H]2CCCCN2)C1 [cobimetinib] | 2.48 ± 0.68 |
| O=C(/C=C/c1cccnc1)NCCCCC1CCN(C(=O)c2ccccc2)CC1 [FK866] | 2.19 ± 0.68 |
| CS(=O)(=O)c1ccc(C(=O)Nc2ccc(Cl)c(-c3ccccn3)c2)c(Cl)c1 [vismodegib] | 2.03 ± 0.61 |
| C=CCn1c(=O)c2cnc(Nc3ccc(N4CCN(C)CC4)cc3)nc2n1-c1cccc(C(C)(C)O)n1 [adavosertib] | 2.35 ± 0.64 |

Same assay, conditions: 0.005 µM

| SMILES | CTG-3D luminescence at 96 h |
| --- | --- |
| COc1cc2c(Oc3ccc4[nH]c(C)cc4c3F)ncnc2cc1OCCCN1CCCC1 [cediranib] | 2.12 ± 0.35 |
| CC(C)n1nc(-c2ccc3oc(N)nc3c2)c2c(N)ncnc21 [sapanisertib] | 1.59 ± 0.54 |
| Cc1cc(Nc2ncnc3ccc(NC4=NC(C)(C)CO4)cc23)ccc1Oc1ccn2ncnc2c1 [tucatinib] | 2.02 ± 0.54 |
| C[C@H](NC(=O)CCC(F)(F)F)C(=O)N[C@@H]1C(=O)N(CCO)c2ncccc2-c2ccccc21 [crenigacestat] | 2.11 ± 0.45 |
| C[C@]12CC[C@@H]3c4ccc(O)cc4C[C@@H](CCCCCCCCC[S+]([O-])CCCC(F)(F)C(F)(F)F)[C@H]3[C@@H]1CC[C@@H]2O (some centres not stated) [fulvestrant] | 2.09 ± 0.32 |
| O=C(c1ccc(F)c(F)c1Nc1ccc(I)cc1F)N1CC(O)([C@@H]2CCCCN2)C1 [cobimetinib] | 1.98 ± 0.5 |
| O=C(/C=C/c1cccnc1)NCCCCC1CCN(C(=O)c2ccccc2)CC1 [FK866] | 0.395 ± 0.15 |
| CS(=O)(=O)c1ccc(C(=O)Nc2ccc(Cl)c(-c3ccccn3)c2)c(Cl)c1 [vismodegib] | 1.93 ± 0.45 |
| C=CCn1c(=O)c2cnc(Nc3ccc(N4CCN(C)CC4)cc3)nc2n1-c1cccc(C(C)(C)O)n1 [adavosertib] | 2.25 ± 0.48 |

Same assay, conditions: 0.1 µM

| SMILES | CTG-3D luminescence at 96 h |
| --- | --- |
| COc1cc2c(Oc3ccc4[nH]c(C)cc4c3F)ncnc2cc1OCCCN1CCCC1 [cediranib] | 2.33 ± 0.4 |
| CC(C)n1nc(-c2ccc3oc(N)nc3c2)c2c(N)ncnc21 [sapanisertib] | 0.0566 ± 0.025 |
| Cc1cc(Nc2ncnc3ccc(NC4=NC(C)(C)CO4)cc23)ccc1Oc1ccn2ncnc2c1 [tucatinib] | 2.29 ± 0.47 |
| C[C@H](NC(=O)CCC(F)(F)F)C(=O)N[C@@H]1C(=O)N(CCO)c2ncccc2-c2ccccc21 [crenigacestat] | 2.4 ± 0.31 |
| C[C@]12CC[C@@H]3c4ccc(O)cc4C[C@@H](CCCCCCCCC[S+]([O-])CCCC(F)(F)C(F)(F)F)[C@H]3[C@@H]1CC[C@@H]2O (some centres not stated) [fulvestrant] | 2.42 ± 0.34 |
| O=C(c1ccc(F)c(F)c1Nc1ccc(I)cc1F)N1CC(O)([C@@H]2CCCCN2)C1 [cobimetinib] | 2.18 ± 0.35 |
| O=C(/C=C/c1cccnc1)NCCCCC1CCN(C(=O)c2ccccc2)CC1 [FK866] | 0.38 ± 0.62 |
| CS(=O)(=O)c1ccc(C(=O)Nc2ccc(Cl)c(-c3ccccn3)c2)c(Cl)c1 [vismodegib] | 2.17 ± 0.6 |
| C=CCn1c(=O)c2cnc(Nc3ccc(N4CCN(C)CC4)cc3)nc2n1-c1cccc(C(C)(C)O)n1 [adavosertib] | 2.28 ± 0.38 |

Same assay, conditions: 1 µM

| SMILES | CTG-3D luminescence at 96 h |
| --- | --- |
| COc1cc2c(Oc3ccc4[nH]c(C)cc4c3F)ncnc2cc1OCCCN1CCCC1 [cediranib] | 1.95 ± 0.42 |
| CC(C)n1nc(-c2ccc3oc(N)nc3c2)c2c(N)ncnc21 [sapanisertib] | 0.0162 ± 0.011 |
| Cc1cc(Nc2ncnc3ccc(NC4=NC(C)(C)CO4)cc23)ccc1Oc1ccn2ncnc2c1 [tucatinib] | 1.93 ± 0.47 |
| C[C@H](NC(=O)CCC(F)(F)F)C(=O)N[C@@H]1C(=O)N(CCO)c2ncccc2-c2ccccc21 [crenigacestat] | 2.16 ± 0.72 |
| C[C@]12CC[C@@H]3c4ccc(O)cc4C[C@@H](CCCCCCCCC[S+]([O-])CCCC(F)(F)C(F)(F)F)[C@H]3[C@@H]1CC[C@@H]2O (some centres not stated) [fulvestrant] | 1.9 ± 0.47 |
| O=C(c1ccc(F)c(F)c1Nc1ccc(I)cc1F)N1CC(O)([C@@H]2CCCCN2)C1 [cobimetinib] | 1.66 ± 0.39 |
| O=C(/C=C/c1cccnc1)NCCCCC1CCN(C(=O)c2ccccc2)CC1 [FK866] | 0.268 ± 0.47 |
| CS(=O)(=O)c1ccc(C(=O)Nc2ccc(Cl)c(-c3ccccn3)c2)c(Cl)c1 [vismodegib] | 2.08 ± 0.6 |
| C=CCn1c(=O)c2cnc(Nc3ccc(N4CCN(C)CC4)cc3)nc2n1-c1cccc(C(C)(C)O)n1 [adavosertib] | 1.54 ± 0.3 |

Same assay, conditions: 10 µM

| SMILES | CTG-3D luminescence at 96 h |
| --- | --- |
| COc1cc2c(Oc3ccc4[nH]c(C)cc4c3F)ncnc2cc1OCCCN1CCCC1 [cediranib] | 0.251 ± 0.12 |
| CC(C)n1nc(-c2ccc3oc(N)nc3c2)c2c(N)ncnc21 [sapanisertib] | 0.0035 ± 0.0049 |
| Cc1cc(Nc2ncnc3ccc(NC4=NC(C)(C)CO4)cc23)ccc1Oc1ccn2ncnc2c1 [tucatinib] | 1.31 ± 0.14 |
| C[C@H](NC(=O)CCC(F)(F)F)C(=O)N[C@@H]1C(=O)N(CCO)c2ncccc2-c2ccccc21 [crenigacestat] | 2.09 ± 0.67 |
| C[C@]12CC[C@@H]3c4ccc(O)cc4C[C@@H](CCCCCCCCC[S+]([O-])CCCC(F)(F)C(F)(F)F)[C@H]3[C@@H]1CC[C@@H]2O (some centres not stated) [fulvestrant] | 1.54 ± 0.46 |
| O=C(c1ccc(F)c(F)c1Nc1ccc(I)cc1F)N1CC(O)([C@@H]2CCCCN2)C1 [cobimetinib] | 1.64 ± 0.61 |
| O=C(/C=C/c1cccnc1)NCCCCC1CCN(C(=O)c2ccccc2)CC1 [FK866] | 0.302 ± 0.52 |
| CS(=O)(=O)c1ccc(C(=O)Nc2ccc(Cl)c(-c3ccccn3)c2)c(Cl)c1 [vismodegib] | 1.96 ± 0.75 |
| C=CCn1c(=O)c2cnc(Nc3ccc(N4CCN(C)CC4)cc3)nc2n1-c1cccc(C(C)(C)O)n1 [adavosertib] | 0.668 ± 0.37 |

Same assay, conditions: 100 µM

| SMILES | CTG-3D luminescence at 96 h |
| --- | --- |
| COc1cc2c(Oc3ccc4[nH]c(C)cc4c3F)ncnc2cc1OCCCN1CCCC1 [cediranib] | 0.0212 ± 0.037 |
| CC(C)n1nc(-c2ccc3oc(N)nc3c2)c2c(N)ncnc21 [sapanisertib] | -0.00157 ± 0.0026 |
| Cc1cc(Nc2ncnc3ccc(NC4=NC(C)(C)CO4)cc23)ccc1Oc1ccn2ncnc2c1 [tucatinib] | 0.018 ± 0.017 |
| C[C@H](NC(=O)CCC(F)(F)F)C(=O)N[C@@H]1C(=O)N(CCO)c2ncccc2-c2ccccc21 [crenigacestat] | 1.64 ± 0.37 |
| C[C@]12CC[C@@H]3c4ccc(O)cc4C[C@@H](CCCCCCCCC[S+]([O-])CCCC(F)(F)C(F)(F)F)[C@H]3[C@@H]1CC[C@@H]2O (some centres not stated) [fulvestrant] | 1.41 ± 0.31 |
| O=C(c1ccc(F)c(F)c1Nc1ccc(I)cc1F)N1CC(O)([C@@H]2CCCCN2)C1 [cobimetinib] | 0.00926 ± 0.011 |
| O=C(/C=C/c1cccnc1)NCCCCC1CCN(C(=O)c2ccccc2)CC1 [FK866] | 0.113 ± 0.1 |
| CS(=O)(=O)c1ccc(C(=O)Nc2ccc(Cl)c(-c3ccccn3)c2)c(Cl)c1 [vismodegib] | 0.299 ± 0.13 |
| C=CCn1c(=O)c2cnc(Nc3ccc(N4CCN(C)CC4)cc3)nc2n1-c1cccc(C(C)(C)O)n1 [adavosertib] | 0.388 ± 0.061 |

Same assay, conditions: 625 fM

| SMILES | CTG-3D luminescence at 96 h |
| --- | --- |
| COc1cc2c(Oc3ccc4[nH]c(C)cc4c3F)ncnc2cc1OCCCN1CCCC1 [cediranib] | 2.18 ± 0.54 |
| CC(C)n1nc(-c2ccc3oc(N)nc3c2)c2c(N)ncnc21 [sapanisertib] | 2.03 ± 0.3 |
| Cc1cc(Nc2ncnc3ccc(NC4=NC(C)(C)CO4)cc23)ccc1Oc1ccn2ncnc2c1 [tucatinib] | 2.12 ± 0.46 |
| C[C@H](NC(=O)CCC(F)(F)F)C(=O)N[C@@H]1C(=O)N(CCO)c2ncccc2-c2ccccc21 [crenigacestat] | 2.07 ± 0.53 |
| C[C@]12CC[C@@H]3c4ccc(O)cc4C[C@@H](CCCCCCCCC[S+]([O-])CCCC(F)(F)C(F)(F)F)[C@H]3[C@@H]1CC[C@@H]2O (some centres not stated) [fulvestrant] | 2.03 ± 0.21 |
| O=C(c1ccc(F)c(F)c1Nc1ccc(I)cc1F)N1CC(O)([C@@H]2CCCCN2)C1 [cobimetinib] | 1.93 ± 0.51 |
| O=C(/C=C/c1cccnc1)NCCCCC1CCN(C(=O)c2ccccc2)CC1 [FK866] | 1.51 ± 0.99 |
| CS(=O)(=O)c1ccc(C(=O)Nc2ccc(Cl)c(-c3ccccn3)c2)c(Cl)c1 [vismodegib] | 1.94 ± 0.54 |
| C=CCn1c(=O)c2cnc(Nc3ccc(N4CCN(C)CC4)cc3)nc2n1-c1cccc(C(C)(C)O)n1 [adavosertib] | 2.01 ± 0.28 |
